Key:
[1] = test system: Hepatitis C virus; assay: Antiviral activity against HCV genotype 1b harboring wild type NS5B infected in human HuH7 cells assessed as inhibition of viral RNA replication after 5 days by RT-PCR method; type: functional, cell-based, Hepacivirus hominis; conditions: Huh-7, 120 h
[2] = Cytotoxicity against human HuH7 cells assessed as inhibition of cell proliferation after 4 days by MTS assay; type: cell-based, Huh-7
[3] = Cytotoxicity against human PBMC assessed as inhibition of cell proliferation after 5 days by MTT assay; type: cell-based
[4] = Cytotoxicity against human CEM cells assessed as inhibition of cell proliferation after 4 days by MTT assay; type: cell-based, CCRF-CEM
[5] = Cytotoxicity against African green monkey Vero cells assessed as inhibition of cell proliferation after 3 days by MTT assay; type: cell-based; conditions: chlorocebus sabaeus
[6] = test system: Hepatitis C virus; assay: Antiviral activity against HCV genotype 1a infected in human HuH7 cells assessed as inhibition of viral RNA replication after 96 hrs by RT-PCR method; type: functional, cell-based, Hepacivirus hominis; conditions: subtype 1a, Huh-7, 96 h
[7] = test system: Hepatitis C virus; assay: Antiviral activity against HCV genotype 1b infected in human HuH7 cells assessed as inhibition of viral RNA replication after 96 hrs by RT-PCR method; type: functional, cell-based, Hepacivirus hominis; conditions: Huh-7, 96 h
[8] = test system: Hepatitis C virus; assay: Antiviral activity against HCV genotype 2a/k infected in human HuH7 cells assessed as inhibition of viral RNA replication after 96 hrs by RT-PCR method; type: functional, cell-based, Hepacivirus hominis; conditions: Huh-7, 96 h
[9] = test system: Hepatitis C virus; assay: Antiviral activity against HCV genotype 2b infected in human HuH7 cells assessed as inhibition of viral RNA replication after 96 hrs by RT-PCR method; type: functional, cell-based, Hepacivirus hominis; conditions: Huh-7, 96 h
[10] = test system: Hepatitis C virus; assay: Antiviral activity against HCV genotype 3a infected in human HuH7 cells assessed as inhibition of viral RNA replication after 96 hrs by RT-PCR method; type: functional, cell-based, Hepacivirus hominis; conditions: Huh-7, 96 h
[11] = test system: Hepatitis C virus; assay: Antiviral activity against HCV genotype 4 infected in human HuH7 cells assessed as inhibition of viral RNA replication after 96 hrs by RT-PCR method; type: functional, cell-based, Hepacivirus hominis; conditions: genotype 4, Huh-7, 96 h
[12] = test system: Hepatitis C virus; assay: Antiviral activity against HCV genotype 1b harboring NS5B S282T mutant infected in human HuH7 cells assessed as inhibition of viral RNA replication after 4 days by luciferase reporter gene assay; type: functional, cell-based, Hepacivirus hominis; conditions: Huh-7, 96 h
[13] = test system: Hepatitis C virus; assay: Selectivity ratio of EC50 for HCV genotype 1b harboring NS5B S282T mutant to EC50 for HCV genotype 1b harboring wild type NS5B; type: functional, Hepacivirus hominis
[14] = test system: Hepatitis C virus; assay: Selectivity ratio of EC90 for HCV genotype 1b harboring NS5B S282T mutant to EC90 for HCV genotype 1b harboring wild type NS5B; type: functional, Hepacivirus hominis
[15] = test system: cytochrome c oxidase subunit 2 DNA (mitochondrial DNA) levels; assay: Mitochondrial toxicity in human HepG2 cells assessed as inhibition of cytochrome c oxidase subunit 2 DNA levels at 50 uM measured on day 14 by RT-PCR method relative to nuclear beta-actin DNA levels; type: cell-based
[16] = test system: nuclear DNA levels; assay: Cytotoxicity against human HepG2 cells assessed as inhibition of nuclear DNA levels at 50 uM measured on day 14 by RT-PCR method relative to nuclear beta-actin DNA levels; type: cell-based; conditions: read-out: INH
[17] = test system: cytochrome c oxidase subunit 2 DNA (mitochondrial DNA) levels; assay: Mitochondrial toxicity in human HepG2 cells assessed as inhibition of cytochrome c oxidase subunit 2 DNA levels measured on day 14 by RT-PCR method; type: cell-based
[18] = test system: HepG2; assay: Cytotoxicity against human HepG2 cells assessed as inhibition of nuclear DNA levels measured on day 14 by RT-PCR method; conditions: HepG2, 336 h
[19] = test system: HepG2; assay: Mitochondrial toxicity in human HepG2 cells assessed as cytochrome c oxidase subunit 2 DNA levels at 10 uM measured on day 14 by RT-PCR method relative to nuclear beta-actin DNA levels; conditions: hepg2, 10 µM
[20] = test system: HepG2; assay: Mitochondrial toxicity in human HepG2 cells assessed as cytochrome c oxidase subunit 2 DNA levels at 50 uM measured on day 14 by RT-PCR method relative to nuclear beta-actin DNA levels; type: cell-based; conditions: hepg2, 50 µM
[21] = test system: HepG2; assay: Mitochondrial toxicity in human HepG2 cells assessed as lactic acid production at 10 uM measured on day 14 by spectrophotometric method relative to control; type: cell-based; conditions: hepg2, 10 µM
[22] = test system: HepG2; assay: Mitochondrial toxicity in human HepG2 cells assessed as lactic acid production at 50 uM measured on day 14 by spectrophotometric method relative to control; type: cell-based; conditions: hepg2, 50 µM
[23] = Cytotoxicity against human primary BMNC cells up to 50 uM measured on day 14; type: cell-based
[24] = Prodrug conversion in human HuH7 cells assessed as increase in nucleoside 5' triphosphate levels at 50 uM after 4 hrs by LC-MS/MS analysis relative to sofosbuvir; type: ADME, cell-based; conditions: huh-7, 4 h
[25] = Prodrug conversion in human primary hepatocytes assessed as increase in nucleoside 5' triphosphate levels at 50 uM after 4 hrs by LC-MS/MS analysis relative to sofosbuvir; type: ADME, cell-based, Hepatocyte
[26] = Metabolic stability in human blood assessed as compound remaining at 2 uM after 2 hrs by LC-MS/MS method; type: ADME, tissue-based; conditions: read-out: Stability
[27] = Half life in human intestinal microsomes; type: ADME, Intestine, Microsome
[28] = Clearance in human intestinal microsomes; type: ADME, Intestine, Microsome
[29] = Metabolic stability in human intestinal microsomes assessed as compound remaining after 60 mins; type: ADME, Intestine, Microsome; conditions: read-out: Stability
[30] = target: Cytochrome P450 3A4 (Homo sapiens, UniProt P08684); assay: Inhibition of human CYP3A4 using ketoconazole […]; type: ADME
Cytochrome P450 3A4, sequence (P08684 whole entry): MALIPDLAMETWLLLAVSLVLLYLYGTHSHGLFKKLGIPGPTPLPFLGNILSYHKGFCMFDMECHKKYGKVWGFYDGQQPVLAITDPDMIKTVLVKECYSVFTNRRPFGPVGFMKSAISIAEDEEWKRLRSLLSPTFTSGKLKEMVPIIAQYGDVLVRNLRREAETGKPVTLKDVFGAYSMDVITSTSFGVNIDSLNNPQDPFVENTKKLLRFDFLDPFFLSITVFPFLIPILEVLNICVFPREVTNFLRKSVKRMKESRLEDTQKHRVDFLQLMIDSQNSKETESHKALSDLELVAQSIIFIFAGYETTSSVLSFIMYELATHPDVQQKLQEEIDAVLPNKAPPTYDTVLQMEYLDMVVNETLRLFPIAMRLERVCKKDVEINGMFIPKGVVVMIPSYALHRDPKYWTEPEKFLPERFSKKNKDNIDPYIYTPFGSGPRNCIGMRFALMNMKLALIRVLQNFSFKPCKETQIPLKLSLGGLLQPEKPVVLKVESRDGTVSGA

[31] = target: Cytochrome P450 2C9 (Homo sapiens, UniProt P11712); assay: Inhibition of human CYP2C9 using sulfaphenazole […]; type: ADME
Cytochrome P450 2C9, sequence (P11712 whole entry): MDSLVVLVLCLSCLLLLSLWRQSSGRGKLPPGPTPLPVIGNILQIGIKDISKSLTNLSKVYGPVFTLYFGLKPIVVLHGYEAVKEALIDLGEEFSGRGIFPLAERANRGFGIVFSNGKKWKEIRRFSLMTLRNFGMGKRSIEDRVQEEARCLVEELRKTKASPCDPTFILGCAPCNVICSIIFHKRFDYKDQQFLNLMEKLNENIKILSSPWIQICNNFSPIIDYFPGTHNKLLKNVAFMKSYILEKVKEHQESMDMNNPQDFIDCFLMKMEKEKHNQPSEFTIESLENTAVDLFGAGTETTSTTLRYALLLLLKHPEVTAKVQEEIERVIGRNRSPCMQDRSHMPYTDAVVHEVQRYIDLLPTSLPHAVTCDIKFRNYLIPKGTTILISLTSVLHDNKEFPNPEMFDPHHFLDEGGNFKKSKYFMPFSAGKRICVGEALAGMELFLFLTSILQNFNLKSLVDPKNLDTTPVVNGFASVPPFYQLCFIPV

[32] = target: T1, Cytochrome P450 1A2 (Homo sapiens, UniProt P05177); assay: Inhibition of human CYP1A2 using alpha-naphthoflavone […]; type: ADME
T1 sequence (P05177 whole entry): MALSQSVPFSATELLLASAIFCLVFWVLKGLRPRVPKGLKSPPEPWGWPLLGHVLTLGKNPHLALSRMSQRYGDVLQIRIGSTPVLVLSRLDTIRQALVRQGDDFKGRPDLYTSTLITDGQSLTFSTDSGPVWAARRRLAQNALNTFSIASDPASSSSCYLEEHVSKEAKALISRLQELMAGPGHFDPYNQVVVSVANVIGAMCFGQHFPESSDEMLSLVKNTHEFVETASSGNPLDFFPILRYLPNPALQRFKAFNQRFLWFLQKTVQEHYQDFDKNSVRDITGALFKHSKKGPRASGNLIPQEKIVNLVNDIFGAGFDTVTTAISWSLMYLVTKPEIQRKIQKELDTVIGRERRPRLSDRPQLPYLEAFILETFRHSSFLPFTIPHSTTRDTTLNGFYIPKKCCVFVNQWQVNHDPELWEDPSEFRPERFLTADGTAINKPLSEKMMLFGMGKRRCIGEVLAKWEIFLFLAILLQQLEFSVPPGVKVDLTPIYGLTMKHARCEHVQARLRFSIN

[33] = target: Cytochrome P450 2D6 (Homo sapiens, UniProt P10635); assay: Inhibition of human CYP2D6 using quinidine […]; type: ADME
Cytochrome P450 2D6, sequence (P10635 whole entry): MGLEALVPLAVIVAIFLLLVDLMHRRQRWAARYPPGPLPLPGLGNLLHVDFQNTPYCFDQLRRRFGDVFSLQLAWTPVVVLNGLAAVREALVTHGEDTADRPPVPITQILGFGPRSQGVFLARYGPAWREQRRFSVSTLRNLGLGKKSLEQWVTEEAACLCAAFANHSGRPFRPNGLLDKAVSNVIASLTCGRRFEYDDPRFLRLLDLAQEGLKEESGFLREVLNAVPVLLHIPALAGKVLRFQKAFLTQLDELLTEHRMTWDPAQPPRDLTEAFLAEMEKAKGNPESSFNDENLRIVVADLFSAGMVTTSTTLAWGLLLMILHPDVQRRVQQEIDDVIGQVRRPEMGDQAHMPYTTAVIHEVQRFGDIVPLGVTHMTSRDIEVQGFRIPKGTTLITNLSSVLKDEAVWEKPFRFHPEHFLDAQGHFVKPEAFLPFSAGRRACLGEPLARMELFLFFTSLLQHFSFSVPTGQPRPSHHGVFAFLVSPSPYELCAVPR

[34] = test system: cytochrome c oxidase subunit 2 DNA (mitochondrial DNA) levels; assay: in vitro; conditions: human, HepG2 cells
[35] = test system: nuclear DNA levels; assay: in vitro; conditions: human, HepG2 cells
[36] = in vitro; conditions: human, liver microsomes
Description: Half life in human liver microsomes at 1 uM by LC-MS/MS analysis

[37] = in vitro; conditions: human, liver microsomes; remark: listed apart in the source
Description: Clearance in human liver microsomes at 1 uM by LC-MS/MS analysis

[38] = in vitro; conditions: human, liver microsomes; remark: listed apart in the source
Description: Metabolic stability in human liver microsomes assessed as parent compound remaining at 1 uM at 60 mins by LC-MS/MS analysis

SMILES: CC(C)OC(=O)[C@H](C)NP(=O)(OC[C@H]1O[C@@H](n2ccc(=O)[nH]c2=O)[C@@](F)(Cl)[C@@H]1O)Oc1ccccc1 (mixture of isomers)
- EC50 [1]: 0.02 to 0.2 µM
- EC90 [1]: 0.07 to 0.4 µM
- CC50 at 96 h [2]: > 10 µM
- CC50 at 120 h [3]: > 100 µM
- CC50 at 96 h [4]: > 100 µM
- CC50 at 72 h [5]: > 100 µM
- IC50 [6]: 0.13 µM
- IC50 [7]: 0.15 µM
- IC50 [8]: 0.05 µM
- IC50 [9]: 0.09 µM
- IC50 [10]: 0.15 µM
- IC50 [11]: 0.17 µM
- EC50 [12]: 0.07 µM
- EC90 [12]: 0.2 µM
- Ratio EC50 [13]: 3.5
- Selectivity ratio [14]: 2.9
- inhibition at 14 days, 50 µM [15]: 27%
- cytotoxicity at 14 days, 50 µM [16]: 13%
- IC50 at 14 days [17]: > 50 µM
- IC50 [18]: > 50 µM
- Activity [19]: 130%
- Activity [20]: 84%
- Activity [21]: 60%
- Activity [22]: 56%
- Activity [23]: Non-Toxic
- fold change (FC) [24]: 2.7
- fold change (FC) [25]: 2.3
- remaining at 2 h, 2 µM [26]: 103%
- half-life [27]: 2 h
- microsomal CLint [28]: 29 µL/min/mg
- remaining at 1 h [29]: 79%
- IC50 [30]: 6.8 µM
- IC50 [31]: 25 µM
- IC50 [32]: > 100 µM
- IC50 [33]: > 100 µM
- inhibition at 14 days, 10 µM [34]: < 1%
- cytotoxicity at 14 days, 10 µM [35]: < 1%
- half-life at 1 µM [36]: 0.193 h
- microsomal CLint at 1 µM [37]: 120 µL/min/mg
- remaining at 1 h, 1 µM [38]: 4.2%
